Measurements from patent US20260285857A1, “BICYCLIC AND HETEROCYCLIC AMIDE COMPOUNDS” (priority 2024, published 2026).

These molecules were tested on immunoglobulin light chain protein WIL-FL T46L (assay: Differential scanning fluorimetry (thermal shift) assay). Settings: not given.
Type: binding

**Q.** Which DSF does the source give for `Cc1cc(N2CC[C@](C)(c3ccccc3)C2)cn2nc(C34CC(CO)(CO3)C4N3CC4(CC4)NC3=O)nc12` (stereo partly drawn) [Compound 576, 6-(4-(hydroxymethyl)-1-(8-methyl-6-((R)-3-methyl-3-phenylpyrrolidin-1-yl)-[1,2,4]triazolo[1,5-a]pyridin-2-yl)-2-oxabicyclo[2.1.1]hexan-5-yl)-4,6-diazaspiro[2.4]heptan-5-one] here?
**A.** ***** (key: 0-0.5° C.=*; >0.5-1 °C =**; >1-1.5° C.=***; >1.5-2.5° C.=****; >2.5° C.=*****)

Same assay, conditions: Table A; temperature shift [Tm]compound-[Tm]vehicle; recombinant WIL-FL T46L

**Q.** How did the DSF turn out when `Cc1cc(N2CC[C@](C)(c3ccccc3)C2)cn2nc(C(=O)NC34CCC(O)(C3)C4)nc12` [Compound 111] was run?
**A.** ***** (>2.5° C.=*****)

**Q.** Which DSF does the source give for `COc1ccc([C@@]2(C)CCN(c3cc(C)c4nc(C(=O)N5CC[C@@]6(CCN(c7cccc(C(=O)O)n7)C6)C5)nn4c3)C2)cc1` [Compound 411] here?
**A.** ***** (>2.5° C.=*****)

**Q.** With `Cc1cc(N2CC[C@](C)(c3ccccc3)C2)cn2nc(C(=O)N3CC[C@@]4(CCN(c5cccc(C(=O)O)n5)C4)C3)nc12` [Compound 267] as the molecule, how does the DSF read?
**A.** ***** (>2.5° C.=*****)

**Q.** With `Cc1cc(N2CC[C@](C)(c3ccccc3)C2)cn2nc(C(=O)N3CC4CN(c5cccc(C(=O)O)n5)CC4(C(F)(F)F)C3)nc12` (some centres unmarked) [Compound 249] as the molecule, how does the DSF read?
**A.** ***** (>2.5° C.=*****)

**Q.** `Cc1cccc([C@@]2(C)CCN(c3cc(C)c4nc(C(=O)N5C[C@@H]6CN(c7cccc(C(=O)O)n7)C[C@@H]6C5)nn4c3)C2)c1` [Compound 415] was tested. Which DSF did it give?
**A.** ***** (>2.5° C.=*****)

**Q.** `Cc1cc(N2CC[C@](C)(c3ccccc3)C2)cn2nc(C34CC(CO3)C4CN3CCNC(=O)C3)nc12` (some centres unmarked) [Compound 84] was tested. Which DSF did it give?
**A.** ***** (>2.5° C.=*****)

**Q.** `CC(O)c1cc(N2CC[C@](C)(c3ccccc3)C2)cn2nc(C(=O)NC3CCN(c4cccc(C(=O)O)n4)CC3)nc12` (some centres unmarked) [Compound 342] was tested. Which DSF did it give?
**A.** ***** (>2.5° C.=*****)

**Q.** For `Cc1cc(N2CC[C@](C)(c3ccccc3)C2)cn2nc(C(=O)NC3CC4(COC4)C3)nc12` [Compound 18, (R)-8-methyl-6-(3-methyl-3-phenylpyrrolidin-1-yl)-N-(2-oxaspiro[3.3]heptan-6-yl)-[1,2,4]triazolo[1,5-a]pyridine-2-carboxamide], which DSF is on record?
**A.** ***** (>2.5° C.=*****)

Same assay, conditions: Table B; temperature shift [Tm]compound-[Tm]vehicle; recombinant WIL-FL T46L

**Q.** Which DSF does the source give for `CCC(=O)Nc1n[nH]c(C2C3(CO)COC2(c2nc4c(C)cc(N5CC[C@](C)(c6ccccc6)C5)cn4n2)C3)n1` (stereo partly drawn) [Compound 572, N-[5-[4-(hydroxymethyl)-1-[8-methyl-6-[(3R)-3-methyl-3-phenyl-pyrrolidin-1-yl]-[1,2,4]triazolo[1,5-a]pyridin-2-yl]-2-oxabicyclo[2.1.1]hexan-5-yl]-1H-1,2,4-triazol-3-yl]propanamide] here?
**A.** ***** (>2.5° C.=*****)

**Q.** For `Cc1cc(N2CC[C@](C)(c3ccccc3)C2)cn2nc(C(=O)NC3COCC4(C3)CN(c3cccc(C(=O)O)n3)C4)nc12` (stereo partly drawn) [Compound 669, 6-(8-(8-methyl-6-((R)-3-methyl-3-phenylpyrrolidin-1-yl)-[1,2,4]triazolo[1,5-a]pyridine-2-carboxamido)-6-oxa-2-azaspiro[3.5]nonan-2-yl)picolinic acid], which DSF is on record?
**A.** ***** (>2.5° C.=*****)

**Q.** How did the DSF turn out when `Cc1cc(N2CC[C@](C)(c3ccccc3)C2)cn2nc(C(=O)N3CCC4(CCC(O)(c5cccc(C(=O)O)n5)C4)C3)nc12` (stereo partly drawn) [Compound 670, 6-[8-hydroxy-2-[8-methyl-6-[(3R)-3-methyl-3-phenyl-pyrrolidin-1-yl]-[1,2,4]triazolo[1,5-a]pyridine-2-carbonyl]-2-azaspiro[4.4]nonan-8-yl]pyridine-2-carboxylic acid] was run?
**A.** ***** (>2.5° C.=*****)

**Q.** Which DSF does the source give for `Cc1cc(N2CC[C@](C)(c3ccccc3)C2)cn2nc(C(=O)N3CCC4(CCC(c5cccc(C(=O)O)n5)C4)C3)nc12` (stereo partly drawn) [Compound 640, 6-[2-[8-methyl-6-[(3R)-3-methyl-3-phenyl-pyrrolidin-1-yl]-[1,2,4]triazolo[1,5-a]pyridine-2-carbonyl]-2-azaspiro[4.4]nonan-8-yl]pyridine-2-carboxylic acid] here?
**A.** ***** (>2.5° C.=*****)

**Q.** With `Cc1cc(N2CC[C@](C)(c3ccccc3)C2)cn2nc(C(=O)N3CC[C@@]4(CCN(C(=O)C56CC(C(=O)O)(C5)C6)C4)C3)nc12` [Compound 712] as the molecule, how does the DSF read?
**A.** ***** (>2.5° C.=*****)
